Literature values as cited in patent publication US7291720B2, “Use of sublethal concentrations of anti-invasin compounds to therapeutically or prophylactically treat fungal infections” (priority 2000, dated 2007).

Legend:
[1] = tested on: susceptible isolate of C. albicans; settings: in vitro
[2] = about half necessitated discontinuation of therapy

For OC(Cn1cncn1)(Cn1cncn1)c1ccc(F)cc1F [fluconazole], the “concentration that reduces hyphal formation” value [1] is listed as 0.1 µg/mL and the “patients with adverse reactions, possibly related to the treatment” value [2] is listed as “over 5%”.
